27 compounds from US11168067B2, “Substituted quinazoline compound having blood-brain barrier penetration capability” (WEISHANG (SHANGHAI) BIO-PHARMACEUTICAL CO., LTD., priority 2016, dated 2021) can be followed below.

For data set [1], the system named is PC-9 tumor cell. Nature of the data set: CellTiter-Glo (CTG) cell viability assay, PC-9 tumor cell growth inhibition. To be noted: for IC50: Homo sapiens, PC-9, 72 h, read-out: PC-9 tumor cell growth inhibition IC50; for inhibiting PC-9 tumor cell growth compared with Iressa: PC-9 cells, cell viability assay.
Method: Cell viability of tumor cells with EGFR-activated mutations (exon 19-deficient Exon 19 Del) protein was detected using CellTiter-Glo (CTG) assay; about 5000 cells were seeded in each blank 96-well plate, 16 hours later, add the proportionally diluted compound, equilibrated at room temperature for 72 hours after the addition of the drug for 30 minutes. 100 μl of CellTiter-Glo reagent was added to each well and the orbital shaker was mixed for 2 minutes to induce cell lysis. The plate was incubated at room temperature for 10 minutes to stabilize the luminescence signal. The TECAN Infinite M1000 Pro instrument records the luminescence signal.
A short description of data set [2]: Blood-brain barrier penetration (brain tissue to plasma concentration ratio). It counts as in vivo. To be noted: rat, rats, four hours after dosing. How it is done:
To determine whether the compound was able to cross the blood-brain barrier (BBB), the rats were administered with the test compound. Four hours after dosing, rats were sacrificed, blood and brain tissue were collected and the concentration of the test compound was analyzed. Brain permeation is defined as the ratio of the concentration of the compound in the brain tissue to the concentration in the plasma. P-glycoprotein is the blood-brain barrier efflux protein, […].

The term IC50 denotes the concentration that inhibits the measured activity by half. The term Kp denotes tissue or fluid exposure divided by exposure in the circulation. `COc1cc2ncnc(Nc3cccc(Cl)c3F)c2cc1OC1CCN(C2COC2)CC1(F)F` (racemic) [Compound 1, (R/S)—N-(3-chloro-2-fluorophenyl)-6-((3,3-difluoro-1-(oxetan-3-yl)piperidin-4-yl)oxy)-7-methoxyquinazolin-4-amine]: in data set [1], the IC50 is < 1 nM and the “inhibiting PC-9 tumor cell growth compared with Iressa” value is “more effective than Iressa”. Besides, in data set [2], the Kp at 4 h was > 0.3. As for `C#Cc1cccc(Nc2ncnc3cc(OC)c(OC4CCN(C5COC5)CC4(F)F)cc23)c1F` (racemic) [Compound 2, (R/S)-6-((3,3-difluoro-1-(oxetan-3-yl)piperidin-4-yl)oxy)-N-(3-ethynyl-2-fluorophenyl)-7-methoxyquinazolin-4-amine], the Kp at 4 h in data set [2] is > 0.3. As to `[2H]C([2H])([2H])Oc1cc2ncnc(Nc3cccc(Cl)c3F)c2cc1OC1CCN(C2COC2)CC1(F)F` (racemic) [Compound 3, (R/S)—N-(3-chloro-2-fluorophenyl)-6-((3,3-difluoro-1-(oxetan-3-yl)piperidin-4-yl)oxy)-7-(methoxy-d3)quinazolin-4-amine], the IC50 in data set [1] was < 1 nM. In data set [2], the concentration ratio (Kp) at 4 h was > 0.3.

For `[2H]C([2H])([2H])Oc1cc2ncnc(Nc3cccc(C#C)c3F)c2cc1OC1CCN(C2COC2)CC1(F)F` (racemic) [Compound 4, (R/S)-6-((3,3-difluoro-1-(oxetan-3-yl)piperidin-4-yl)oxy)-N-(3-ethynyl-2-fluorophenyl)-7-(methoxy-d3)quinazolin-4-amine], the partition ratio (Kp) at 4 h in data set [2] was > 0.3. On to `C#Cc1c(F)ccc(Nc2ncnc3cc(OC)c(OC4CCN(C)CC4(F)F)cc23)c1F` (racemic) [Compound 5, (R/S)-6-((3,3-difluoro-1-methylpiperidin-4-yl)oxy)-N-(3-ethynyl-2,4-difluorophenyl)-7-methoxyquinazolin-4-amine], for which, in data set [2], the partition ratio (Kp) at 4 h is > 0.3. On to `C#Cc1cccc(Nc2ncnc3cc(OC)c(OC4CCN(C)CC4(F)F)cc23)c1F` (racemic) [Compound 6, (R/S)-6-((3,3-difluoro-1-methylpiperidin-4-yl)oxy)-N-(3-ethynyl-2-fluorophenyl)-7-methoxyquinazolin-4-amine], for which, in data set [2], the Kp at 4 h was > 0.3. For the compound `COc1cc2ncnc(Nc3ccc(F)c(Cl)c3F)c2cc1OC1CCN(C2COC2)CC1(F)F` (racemic) [Compound 7, (R/S)—N-(3-chloro-2,4-difluorophenyl)-6-((3,3-difluoro-1-(oxetan-3-yl)piperidin-4-yl)oxy)-7-methoxyquinazolin-4-amine], in data set [1], the half-inhibitory concentration (IC50) is < 1 nM and the “inhibiting PC-9 tumor cell growth compared with Iressa” value is recorded as “more effective than Iressa”. The Kp at 4 h in data set [2] is > 0.3. `C#Cc1c(F)ccc(Nc2ncnc3cc(OC)c(OC4CCN(C5COC5)CC4(F)F)cc23)c1F` (racemic) [Compound 8, (R/S)-6-((3,3-difluoro-1-(oxetan-3-yl)piperidin-4-yl)oxy)-N-(3-ethynyl-2,4-difluorophenyl)-7-methoxyquinazolin-4-amine]: in data set [2], the Kp at 4 h is > 0.3. For the compound `[2H]C([2H])([2H])Oc1cc2ncnc(Nc3ccc(F)c(Cl)c3F)c2cc1OC1CCN(C2COC2)CC1(F)F` (racemic) [Compound 9, (R/S)—N-(3-chloro-2,4-difluorophenyl)-6-((3,3-difluoro-1-(oxetan-3-yl)piperidin-4-yl)oxy)-7-(methoxy-d3)quinazolin-4-amine], in data set [1], the half-maximal inhibitory concentration (IC50) is < 1 nM and the “inhibiting PC-9 tumor cell growth compared with Iressa” value is on record as “more effective than Iressa”. Besides, the concentration ratio (Kp) at 4 h in data set [2] is > 0.3. On to `[2H]C([2H])([2H])Oc1cc2ncnc(Nc3ccc(F)c(C#C)c3F)c2cc1OC1CCN(C2COC2)CC1(F)F` (racemic) [Compound 10, (R/S)-6-((3,3-difluoro-1-(oxetan-3-yl)piperidin-4-yl)oxy)-N-(3-ethynyl-2,4-difluorophenyl)-7-(methoxy-d3)quinazolin-4-amine], for which, in data set [2], the Kp at 4 h is > 0.3. With `COc1cc2ncnc(Nc3cccc(Cl)c3F)c2cc1O[C@@H]1CCN(C2COC2)CC1(F)F` [Compound 11, (R)—N-(3-chloro-2-fluorophenyl)-6-((3,3-difluoro-1-(oxetan-3-yl)piperidin-4-yl)oxy)-7-methoxyquinazolin-4-amine], the IC50 in data set [1] was < 1 nM. For the same compound, in data set [2], the partition ratio (Kp) at 4 h was > 0.3. With `C#Cc1cccc(Nc2ncnc3cc(OC)c(O[C@@H]4CCN(C5COC5)CC4(F)F)cc23)c1F` [Compound 12, (R)-6-((3,3-difluoro-1-(oxetan-3-yl)piperidin-4-yl)oxy)-N-(3-ethynyl-2-fluorophenyl)-7-methoxyquinazolin-4-amine], the partition ratio (Kp) at 4 h in data set [2] was > 0.3. With `COc1cc2ncnc(Nc3cccc(Cl)c3F)c2cc1O[C@H]1CCN(C2COC2)CC1(F)F` [Compound 13, (S)—N-(3-chloro-2-fluorophenyl)-6-((3,3-difluoro-1-(oxetan-3-yl)piperidin-4-yl)oxy)-7-methoxyquinazolin-4-amine], the concentration for half-maximal inhibition (IC50) in data set [1] is < 1 nM. The concentration ratio (Kp) at 4 h in data set [2] was > 0.3. In the case of `C#Cc1cccc(Nc2ncnc3cc(OC)c(O[C@H]4CCN(C5COC5)CC4(F)F)cc23)c1F` [Compound 14, (S)-6-((3,3-difluoro-1-(oxetan-3-yl)piperidin-4-yl)oxy)-N-(3-ethynyl-2-fluorophenyl)-7-methoxyquinazolin-4-amine], the partition ratio (Kp) at 4 h in data set [2] is > 0.3. For `[2H]C([2H])([2H])Oc1cc2ncnc(Nc3cccc(Cl)c3F)c2cc1O[C@@H]1CCN(C2COC2)CC1(F)F` [Compound 15, (R)—N-(3-chloro-2-fluorophenyl)-6-((3,3-difluoro-1-(oxetan-3-yl)piperidin-4-yl)oxy)-7-(methoxy-d3)quinazolin-4-amine], the IC50 in data set [1] was < 1 nM. For the same compound, in data set [2], the partition ratio (Kp) at 4 h was > 0.3.

As for `[2H]C([2H])([2H])Oc1cc2ncnc(Nc3cccc(C#C)c3F)c2cc1O[C@@H]1CCN(C2COC2)CC1(F)F` [Compound 16, (R)-6-((3,3-difluoro-1-(oxetan-3-yl)piperidin-4-yl)oxy)-N-(3-ethynyl-2-fluorophenyl)-7-(methoxy-d3)quinazolin-4-amine], in data set [2], the Kp at 4 h was > 0.3. In the case of `[2H]C([2H])([2H])Oc1cc2ncnc(Nc3cccc(Cl)c3F)c2cc1O[C@H]1CCN(C2COC2)CC1(F)F` [Compound 17, (S)—N-(3-chloro-2-fluorophenyl)-6-((3,3-difluoro-1-(oxetan-3-yl)piperidin-4-yl)oxy)-7-(methoxy-d3)quinazolin-4-amine], the half-inhibitory concentration (IC50) in data set [1] was < 1 nM. For the same compound, in data set [2], the partition ratio (Kp) at 4 h is > 0.3. For `[2H]C([2H])([2H])Oc1cc2ncnc(Nc3cccc(C#C)c3F)c2cc1O[C@H]1CCN(C2COC2)CC1(F)F` [Compound 18, (S)-6-((3,3-difluoro-1-(oxetan-3-yl)piperidin-4-yl)oxy)-N-(3-ethynyl-2-fluorophenyl)-7-(methoxy-d3)quinazolin-4-amine], in data set [2], the Kp at 4 h is > 0.3.

For `C#Cc1c(F)ccc(Nc2ncnc3cc(OC)c(O[C@@H]4CCN(C)CC4(F)F)cc23)c1F` [Compound 19, (R)-6-((3,3-difluoro-1-methylpiperidin-4-yl)oxy)-N-(3-ethynyl-2,4-difluorophenyl)-7-methoxyquinazolin-4-amine], the Kp at 4 h in data set [2] was > 0.3.

`C#Cc1cccc(Nc2ncnc3cc(OC)c(O[C@@H]4CCN(C)CC4(F)F)cc23)c1F` [Compound 20, (R)-6-((3,3-difluoro-1-methylpiperidin-4-yl)oxy)-N-(3-ethynyl-2-fluorophenyl)-7-methoxyquinazolin-4-amine]: the Kp at 4 h in data set [2] is > 0.3. Same read-out and setting: the value for `C#Cc1c(F)ccc(Nc2ncnc3cc(OC)c(O[C@H]4CCN(C)CC4(F)F)cc23)c1F` [Compound 21, (S)-6-((3,3-difluoro-1-methylpiperidin-4-yl)oxy)-N-(3-ethynyl-2,4-difluorophenyl)-7-methoxyquinazolin-4-amine] was > 0.3. In the case of `C#Cc1cccc(Nc2ncnc3cc(OC)c(O[C@H]4CCN(C)CC4(F)F)cc23)c1F` [Compound 22, (S)-6-((3,3-difluoro-1-methylpiperidin-4-yl)oxy)-N-(3-ethynyl-2-fluorophenyl)-7-methoxyquinazolin-4-amine], the Kp at 4 h in data set [2] was > 0.3.

For `COc1cc2ncnc(Nc3ccc(F)c(Cl)c3F)c2cc1O[C@@H]1CCN(C2COC2)CC1(F)F` [Compound 23, (R)—N-(3-chloro-2,4-difluorophenyl)-6-((3,3-difluoro-1-(oxetan-3-yl)piperidin-4-yl)oxy)-7-methoxyquinazolin-4-amine], the IC50 in data set [1] is < 1 nM. Besides, in data set [2], the Kp at 4 h is > 0.3. As to `C#Cc1c(F)ccc(Nc2ncnc3cc(OC)c(O[C@@H]4CCN(C5COC5)CC4(F)F)cc23)c1F` [Compound 24, (R)-6-((3,3-difluoro-1-(oxetan-3-yl)piperidin-4-yl)oxy)-N-(3-ethynyl-2,4-difluorophenyl)-7-methoxyquinazolin-4-amine], in data set [2], the concentration ratio (Kp) at 4 h is > 0.3.

`C#Cc1c(F)ccc(Nc2ncnc3cc(OC)c(O[C@H]4CCN(C5COC5)CC4(F)F)cc23)c1F` [Compound 26, (S)-6-((3,3-difluoro-1-(oxetan-3-yl)piperidin-4-yl)oxy)-N-(3-ethynyl-2,4-difluorophenyl)-7-methoxyquinazolin-4-amine]: in data set [2], the Kp at 4 h is > 0.3.

For `[2H]C([2H])([2H])Oc1cc2ncnc(Nc3ccc(F)c(C#C)c3F)c2cc1O[C@@H]1CCN(C2COC2)CC1(F)F` [Compound 28, (R)-6-((3,3-difluoro-1-(oxetan-3-yl)piperidin-4-yl)oxy)-N-(3-ethynyl-2,4-difluorophenyl)-7-(methoxy-d3)quinazolin-4-amine], in data set [2], the concentration ratio (Kp) at 4 h was > 0.3. For the compound `[2H]C([2H])([2H])Oc1cc2ncnc(Nc3ccc(F)c(C#C)c3F)c2cc1O[C@H]1CCN(C2COC2)CC1(F)F` [Compound 30, (S)-6-((3,3-difluoro-1-(oxetan-3-yl)piperidin-4-yl)oxy)-N-(3-ethynyl-2,4-difluorophenyl)-7-(methoxy-d3)quinazolin-4-amine], in data set [2], the partition ratio (Kp) at 4 h was > 0.3.
